Columns and labels:
Type in all cases: cell-based
[1] = system: HCT116 cells; test: MTT antiproliferative assay, HCT116; settings: Homo sapiens, HCT-116, 72 h, read-out: HCT116 IC50
[2] = system: MCF-7 cells; test: MTT antiproliferative assay, MCF-7; settings: Homo sapiens, MCF7, 72 h, read-out: MCF-7 IC50
[3] = system: SKBR-3 cells; test: MTT antiproliferative assay, SKBR-3; settings: Homo sapiens, SK-BR-3, 72 h, read-out: SKBR-3 IC50

Question: How did the IC50 [1] turn out when `COc1ccc(C=Cc2cc(NC(=O)c3ccc(C(N)=NO)cc3)cc(OC)c2)cc1` [HERP6, 4-(N'-hydroxycarbamimidoyl)-N-[3-methoxy-5-(4-methoxystyryl)phenyl] benzamide] was run?
Answer: 11.9 µM

Question: What about the IC50 [2] of the same compound?
Answer: 9.2 µM

Question: And the IC50 [3]?
Answer: 1.62 µM

Source: paper PMC2866155 (Chemical biology & drug design, 2009)
